This is an account of results in patent US6620837B1, “Antithrombotic agents” (Eli Lilly and Company, priority 1999, dated 2003).

Structures can show the parent of a compound that is named as a salt. Bounds are passed on as bounds.

A short description of data set [1]: Volume of distribution (VD) after oral dosing, pharmacokinetic model. The data set is classed as in vivo, dog. The conditions noted are these: VD=Clearance/K; Clearance=Dose/AUC following oral dosing; compounds of the invention. From the text: Many of the antithrombotic compounds disclosed in the prior art are lipophilic and, therefore, undergo high volumes of distribution from the plasma component and into the tissues. Since thrombin resides in the plasma, this tissue distribution is not preferred. […] Data in Table 1 below confirms that the compounds of the present invention have lower volumes of distribution and, therefore, better pharmacokinetic properties than their corresponding compounds of formula I in which R^d is hydrogen.
The Volume of Distribution (VD) was calculated according to the standard equation:
where Clearance=Dose (ug)/AUC (ug/ml) where AUC is the amount of drug present in plasma following oral dosing and is measured as the area under a curve of drug concentration versus time. K(h^−1) is the elimination rate constant.
Test compound is formulated immediately prior to dosing by dissolving in sterile 0.9 percent saline to a 5 mg/mL preparation. Dogs are given a single 2 mg/kg dose of test compound by oral gavage. Blood samples (4.5 mL) are taken from the cephalic vein at 0.25, 0.5, 0.75, 1, 2, 3, 4 and 6 hours after dosing. Samples are collected in citrated Vacutainer tubes and kept on ice prior to reduction to plasma by centrifugation. Plasma samples are analyzed by HPLC MS. Plasma concentration of test compound is recorded and used to calculate the pharmacokinetic parameters: elimination rate constant, Ke; total clearance, Clt; volume of distribution, VD; time of maximum plasma test compound concentration, Tmax; maximum concentration of test compound of Tmax, Cmax; plasma half-life, t0.5; and area under the curve, A.U.C.; fraction of test compound absorbed, F.

The term melting point denotes the temperature, or range, at which the solid turns liquid. In the case of `O=C([O-])c1cc(-c2sc3ccccc3c2Cc2ccc(OCCN3CCCC3)cc2)ccc1OCCN1CCCC1.[Na+]` [Example 1, 2-[2-(1-Pyrrolidinyl)ethoxy]-5-[3-[4-[2-(1-pyrrolidinyl)ethoxy]benzyl]benzo[b]thiophen-2-yl]benzoic Acid Sodium Salt], the melting point was 253 to 255 °C (dec.). In addition, the “VD” value in data set [1] amounted to 1.27 L/kg.

`O=C([O-])CCCOc1ccc(-c2sc3ccccc3c2Cc2ccc(OCCN3CCCC3)cc2)cc1C(=O)[O-].[Na+].[Na+]` [Example 2, 2-(3-Carboxypropoxy)-5-[3-[4-[2-(1-pyrrolidinyl)ethoxy]benzyl]benzo[b]thiophen-2-yl]benzoic Acid Disodium Salt] registered a melting point above 250 °C. In addition, the “VD” value in data set [1] was 0.46 L/kg.

For `COC(=O)CCCOc1ccc(-c2sc3ccccc3c2Cc2ccc(OCCN3CCCC3)cc2)cc1C(N)=O` [Example 4, 2-(3-Carbomethoxypropoxy)-5-[3-[4-[2-(1-pyrrolidinyl)ethoxy]benzyl]benzo[b]thiophen-2-yl]benzamide Oxalate Salt], in data set [1], the “VD” value amounted to 3.36 L/kg.

On to `NC(=O)CCCOc1cc(-c2sc3ccccc3c2Cc2ccc(OCCN3CCCC3=O)cc2)ccc1OCCN1CCCC1` [Example 8, 2-[3-(4-Amino-4-oxobutoxy)-4-[2-(1-pyrrolidinyl)ethoxy]phenyl]-3-[4-[2-(2-oxopyrrolidin-1-yl)ethoxy]-benzyl]benzo[b]thiophene Oxalate], for which the “VD” value in data set [1] came out at 13.53 L/kg.

For the compound `O=C([O-])CCCOc1cc(-c2sc3ccccc3c2C(=O)c2ccc(OCCN3CCCC3=O)cc2)ccc1OCCN1CCCC1.[Li+]` [Example 11], the “VD” value in data set [1] stood at 5.13 L/kg.
